# Reference: patent publication US8450355B2, “Compounds for the treatment of inflammatory diseases” (Merck Sharp & Dohme Corp., priority 2008, dated 2013)
# System: not listed separately
# Assay: Area under the curve determination of plasma levels in rats (rapid rat AUC)
# Type: in vivo
# Settings: Table A, oral, 10 mg/kg, blood 0.5-6 h post-dosing, read-out: RR AUC
# Method: Area Under the Curve Determinations of Plasma Levels in Rats (rrAUC)
# To gain insight into the pharmacokinetic properties of the compounds of formula (I), plasma levels of the compounds in rats were determined according to the protocol described in Korfmacher, W. A.; Cox, K. A.; Ng, K. J.; Veals, J.; Hsieh, Y.; Wainhaus, S.; Broske, L.; Prelusky, D.; Nomeir, A.; White, R. E. Rapid Commun. Mass Spectrom, 2001, 15, 335, Briefly, rats, after an overnight fast, were dosed orally with the test compound at a dose of 10 mg/kg in a 5 mL/kg dose volume. Blood was collected at 0.5, 1, 2, 3, 4, and 6 h post-dosing. Mass spectrometry using high performance liquid chromatography was used to identify and measure the concentrations of the test compounds in the plasma at the various time points. The parent ion of each test compound was used to identify and quantitate the compounds in plasma.
row,AUC [µM·h],Compound
1,0.113,COC(=O)[C@@](CN1Cc2ccc(OC)c(F)c2C1=O)(NC(N)=O)c1cc2nc(Cl)c(F)cc2o1 [Compound 1304]

# Same assay, conditions: Table B, oral, 10 mg/kg, blood 0.5-6 h post-dosing, read-out: RR AUC
row,AUC [µM·h],Compound
1,0.321,COc1ccc2c(c1)C(=O)N(C[C@@]1(c3cc4c5c(ccc4o3)C3(CC5)NC(=O)NC3=O)NC(=O)NC1=O)C2 (some centres unmarked) [Compound 2210]
2,0.055,COc1ccc2c(c1)C(=O)N(C[C@@]1(c3cc4c5c(ccc4o3)C3(CCC5)NC(=O)NC3=O)NC(=O)NC1=O)C2 (some centres unmarked) [Compound 2211]
3,0.128,COc1ccc2c(c1)C(=O)N(C[C@@]1(c3cc4ccc5c(c4o3)CCC53NC(=O)NC3=O)NC(=O)NC1=O)C2 (some centres unmarked) [Compound 2214]
4,1.6,COc1ccc2c(c1F)C(=O)N(C[C@@]1(c3cc4c5c(ccc4o3)C3(CC5)NC(=O)NC3=O)NC(=O)NC1=O)C2 (some centres unmarked) [Compound 2216]

# System: TNF-α production from human whole blood
# Assay: Inhibition of TNF-α production from human whole blood (hWBA)
# Type: cell-based
# Settings: Table A; human whole blood diluted 1:1, LPS stimulation, 3.5 h, TNF-α by ELISA
# Method: Assay for Inhibition of TNF-α Production from Human Whole Blood (hWBA)
# Human whole blood was diluted 1:1 with serum free medium (RPMI, L-glutamine, Pen-Strep, HEPES) and incubated with a test compound in a final volume of 360 μL for 1 h at 37° C. Forty microliters of LPS (10 μg/mL) was then added. Supernatant was collected after 3.5 h incubation and the concentration of TNF-α was determined by ELISA (R&D Systems). The concentration of the test compound which inhibits 50% of the amount of TNF-α from the control untreated control was determined.
row,IC50 [nM],Compound
1,> 10000,COc1ccc2c(c1)C(=O)N(C[C@@](N)(C(=O)O)c1cc3cnccc3o1)C2 [Compound 1120A]
2,> 10000,COc1ccc2c(c1)C(=O)N(C[C@@](O)(C(=O)O)c1cc3cnccc3[nH]1)C2 [Compound 1120B]
3,> 10000,COc1c(F)cc2c(c1F)C(=O)N(CC1(C#Cc3ccc(C4(CN)NC(=O)NC4=O)cc3)NC(=O)NC1=O)C2 (centres unmarked) [Compound 1150]
4,7140,COc1c(F)cc2c(c1F)C(=O)N(C[C@@]1(c3cc4cnccc4o3)NC(=O)NC1=O)C2 [Compound 1160]
5,> 10000,COc1c(F)cc2c(c1F)C(=O)N(CC1(c3cc4cnccc4o3)NC(=O)NC1=O)C2 (centres unmarked) [Compound 1165]
6,> 10000,COc1c(F)cc2c(c1F)C(=O)N(CC1(c3cc4ncccc4o3)NC(=O)NC1=O)C2 (centres unmarked) [Compound 1170]
7,7120,COc1c(F)cc2c(c1F)C(=O)N(C[C@@]1(c3cc4ncccc4o3)NC(=O)NC1=O)C2 [Compound 1175]
8,1430,COc1c(F)cc2c(c1F)C(=O)N(C[C@@]1(C#Cc3ccc(C(N)=O)cc3)NC(=O)NC1=O)C2 [Compound 1180]
9,> 10000,COc1c(F)cc2c(c1F)C(=O)N(CC1(c3cc4nc(N5CCC(N(C)C)CC5)ccc4o3)NC(=O)NC1=O)C2 (centres unmarked) [Compound 1190]
10,3100,COC(=O)[C@@](CN1Cc2ccc(OC)c(F)c2C1=O)(NC(N)=O)c1cc2nc(Cl)c(F)cc2o1 [Compound 1304]
11,640,COc1ccc2c(c1)C(=O)N(C[C@@]1(c3cc4nc(C(=N)NO)ccc4o3)NC(=O)NC1=O)C2 [Compound 1500]
12,1890,CCN1CCN(C(=N)c2ccc3oc([C@]4(CN5Cc6ccc(OC)cc6C5=O)NC(=O)NC4=O)cc3n2)CC1 [Compound 1501]
13,1820,COc1ccc2c(c1)C(=O)N(C[C@@]1(c3cc4nc(C(=N)N5CCCN(C)CC5)ccc4o3)NC(=O)NC1=O)C2 [Compound 1502]
14,501,Cc1cc2cc3c(c(F)c2o1)C(=O)N(CC1(c2cc4nc(-c5cn[nH]c5)ccc4o2)NC(=O)NC1=O)C3 (centres unmarked) [Compound 1700]
15,> 10000,Cc1cc2c3c(ccc2o1)CN(C[C@@]1(c2cc4ncccc4o2)NC(=O)NC1=O)C3=O [Compound 1701]
16,> 10000,COCc1cc2c3c(ccc2o1)CN(C[C@@]1(c2cc4ncccc4o2)NC(=O)NC1=O)C3=O [Compound 1702]
17,> 10000,O=C1NC(=O)[C@](CN2Cc3ccc4oc(Cc5ccccc5)cc4c3C2=O)(c2cc3ncccc3o2)N1 [Compound 1703]
18,> 10000,O=C1NC(=O)[C@](CN2Cc3ccc4oc(C5CC5)cc4c3C2=O)(c2cc3ncccc3o2)N1 [Compound 1704]
19,292,COc1ccc2c(c1)C(=O)N(C[C@@]1(C(=O)Cc3nc(Nc4cn[nH]c4)ccc3O)NC(=O)NC1=O)C2 [Compound 1705]
20,1570,CCN1CCCN(c2ccc(O)c(CC(=O)[C@]3(CN4Cc5ccc(OC)c(F)c5C4=O)NC(=O)NC3=O)n2)CC1 [Compound 1707]

# Same assay, conditions: Table B; human whole blood diluted 1:1, LPS stimulation, 3.5 h, TNF-α by ELISA
row,IC50 [nM],Compound
1,307,COc1ccc2c(c1)C(=O)N(C[C@@]1(c3cc4nc(C(=N)N)ccc4o3)NC(=O)NC1=O)C2 [Compound 2200]
2,≥ 10000,COc1c(Cl)cc2c(c1Cl)C(=O)N(C[C@@]1(c3cc4cnccc4o3)NC(=O)NC1=O)C2 [Compound 2201]
3,3560,COc1ccc2c(c1)CCN(C[C@@]1(c3cc4c5c(ccc4o3)C3(CC5)NC(=O)NC3=O)NC(=O)NC1=O)C2=O (some centres unmarked) [Compound 2203]
4,384,COc1ccc2c(c1)C(=O)N(C[C@@]1(c3cc4cc(/C(=N\O)N(C)CCN(C)C)ccc4o3)NC(=O)NC1=O)C2 [Compound 2206]
5,308,CCN(CC)CCN(C)/C(=N/O)c1ccc2oc([C@]3(CN4Cc5ccc(OC)cc5C4=O)NC(=O)NC3=O)cc2c1 [Compound 2207]
6,281,CCN(CC)CCN(CC)/C(=N/O)c1ccc2oc([C@]3(CN4Cc5ccc(OC)cc5C4=O)NC(=O)NC3=O)cc2c1 [Compound 2208]
7,315,COc1ccc2c(c1)C(=O)N(C[C@@]1(c3cc4cc(NS(N)(=O)=O)ccc4o3)NC(=O)NC1=O)C2 [Compound 2209]
8,187,COc1ccc2c(c1)C(=O)N(C[C@@]1(c3cc4c5c(ccc4o3)C3(CC5)NC(=O)NC3=O)NC(=O)NC1=O)C2 (some centres unmarked) [Compound 2210]
9,570,COc1ccc2c(c1)C(=O)N(C[C@@]1(c3cc4c5c(ccc4o3)C3(CCC5)NC(=O)NC3=O)NC(=O)NC1=O)C2 (some centres unmarked) [Compound 2211]
10,335,COc1ccc2c(c1)C(=O)N(C[C@@]1(c3cc4c5c(ccc4o3)C3(CC5)CNC(=O)N3)NC(=O)NC1=O)C2 (some centres unmarked) [Compound 2213]
11,1010,COc1ccc2c(c1)C(=O)N(C[C@@]1(c3cc4ccc5c(c4o3)CCC53NC(=O)NC3=O)NC(=O)NC1=O)C2 (some centres unmarked) [Compound 2214]
12,628,COc1ccc2c(c1)C(=O)N(C[C@@]1(c3cc4ccc5c(c4o3)CCC53CNC(=O)N3)NC(=O)NC1=O)C2 (some centres unmarked) [Compound 2215]
13,145,COc1ccc2c(c1F)C(=O)N(C[C@@]1(c3cc4c5c(ccc4o3)C3(CC5)NC(=O)NC3=O)NC(=O)NC1=O)C2 (some centres unmarked) [Compound 2216]
14,1940,COc1ccc2c(c1)CCN(C[C@@]1(c3cc4c5c(ccc4o3)CNC5=O)NC(=O)NC1=O)C2=O [Compound 2217]
15,284,COc1ccc2c(c1)CCN(C[C@@]1(c3cc4nc(-c5cn[nH]c5)ccc4o3)NC(=O)NC1=O)C2=O [Compound 2218]
16,1370,COc1ccc2c(c1)CCN(C[C@@]1(c3cc4cnccc4o3)NC(=O)NC1=O)C2=O [Compound 2219]
17,1000,COc1ccc2c(c1)C(=O)N(C[C@@]1(c3cc4c5c(ccc4o3)CCC53NC(=O)NC3=O)NC(=O)NC1=O)C2 (some centres unmarked) [Compound 2223]
18,239,CCCN(C)C(=NO)c1ccc(C#C[C@]2(CN3Cc4ccc(OC)cc4C3=O)NC(=O)NC2=O)cc1 [Compound 2224]
19,813,COc1ccc2c(c1)C(=O)N(C[C@@]1(C#Cc3ccc(C(=NO)N(C)C)s3)NC(=O)NC1=O)C2 [Compound 2227]
20,91,COc1ccc2c(c1)C(=O)N(C[C@@]1(C#Cc3ccc(C(=NO)N(C)CCN(C)C)cc3)NC(=O)NC1=O)C2 [Compound 2228]
21,96,CCN(CC)CCN(C)C(=NO)c1ccc(C#C[C@]2(CN3Cc4ccc(OC)cc4C3=O)NC(=O)NC2=O)cc1 [Compound 2229]
22,434,COc1ccc2c(c1)C(=O)N(C[C@@]1(C#Cc3ccc(C(=O)NS(N)(=O)=O)cc3)NC(=O)NC1=O)C2 [Compound 2230]
23,152,COc1ccc2c(c1)C(=O)N(C[C@@]1(C#Cc3ccc(C(=NO)N(C)C)cc3)NC(=O)NC1=O)C2 [Compound 2231]
24,205,CCN(CC)C(=NO)c1ccc(C#C[C@]2(CN3Cc4ccc(OC)cc4C3=O)NC(=O)NC2=O)cc1 [Compound 2234]
25,1180,COc1ccc2c(c1)C(=O)N(C[C@@]1(C#Cc3ccc(C(C(N)=O)N4CCCN(C(=O)OC(C)(C)C)CC4)cc3)NC(=O)NC1=O)C2 (some centres unmarked) [Compound 2237]
26,1020,COc1ccc2c(c1)C(=O)N(C[C@@]1(C#Cc3ccc(C(C(=O)O)N4CCCN(C(=O)OC(C)(C)C)CC4)cc3)NC(=O)NC1=O)C2 (some centres unmarked) [Compound 2238]
27,267,COc1ccc2c(c1)C(=O)N(C[C@@]1(C#Cc3ccc(NC(=S)NCCN4CCOCC4)cc3)NC(=O)NC1=O)C2 [Compound 2239]
28,1270,COc1ccc2c(c1)C(=O)N(C[C@@]1(C(=O)Cc3nc(NC4CCN(C)CC4)ccc3O)NC(=O)NC1=O)C2 [Compound 2241]
